# From patent US7863453B2, “Tartrate salt of isofagomine and methods of use” (Amicus Therapeutics, Inc., priority 2006, dated 2011)
# “And” between values parts separate entries of the source, which are not always exact repeats. Equal entries are not always repeated. Structures can show the parent of a compound that is named as a salt. Where two headings read alike, the source gives them in different places.
# Tests used:
# [1] = Phase I multiple ascending dose study, pharmacokinetics; format: in vivo, human; conditions: after 7 days of oral administration
# Protocol: (§1) Isofagomine tartrate is a pharmacological chaperone in development for the treatment of the lysosomal storage disorder Gaucher disease. Using cell-based and animal models we have shown that isofagomine increases cellular levels of glucocerebrosidase (GCase), the enzyme deficient in Gaucher disease. Randomized double-blind Phase I clinical studies were performed in 72 healthy volunteers, (39 male, 33 female). Isofagomine tartrate was orally administered as an aqueous solution. In a first-in-human single ascending dose study, doses of 8, 25, 75, 150 (two cohorts), and 300 mg were administered (6 active, 2 placebo in each cohort). In a multiple ascending dose study, doses of 25, 75, and 225 mg were administered daily for seven days (6 active, 2 placebo in each cohort).
# (§2) Mean plasma levels peaked at 3.4 hr. […] (SEM: 2 hr.).
# [2] = animals, background statement; cited from earlier work
# mutant GCase = test: Ex vivo response study, GCase levels in macrophages derived from Gaucher patients; format: cell-based, human
# Protocol: The intracellular enhancement activity of isofagomine L-(+)-tartrate was investigated with fibroblasts established from Gaucher patients. To evaluate the effects of IFG on mutant GCase levels, an ex vivo response study with macrophages and EBV-transformed lymphoblasts derived from peripheral leukocytes of 40 patients was conducted.
# The study included 21 males with type I Gaucher disease, 1 person with type III Gaucher disease, and 18 females with type I Gaucher disease. Patients ranged in age from 7 to 83 years, and 38 of 40 patients were on enzyme replacement therapy (ERT).
# [3] = biological target: T1, recombinant human acid β-glucosidase (GCase) (Homo sapiens, UniProt P04062); conditions: background statement; cited from earlier work
# T1 sequence (P04062 40-536): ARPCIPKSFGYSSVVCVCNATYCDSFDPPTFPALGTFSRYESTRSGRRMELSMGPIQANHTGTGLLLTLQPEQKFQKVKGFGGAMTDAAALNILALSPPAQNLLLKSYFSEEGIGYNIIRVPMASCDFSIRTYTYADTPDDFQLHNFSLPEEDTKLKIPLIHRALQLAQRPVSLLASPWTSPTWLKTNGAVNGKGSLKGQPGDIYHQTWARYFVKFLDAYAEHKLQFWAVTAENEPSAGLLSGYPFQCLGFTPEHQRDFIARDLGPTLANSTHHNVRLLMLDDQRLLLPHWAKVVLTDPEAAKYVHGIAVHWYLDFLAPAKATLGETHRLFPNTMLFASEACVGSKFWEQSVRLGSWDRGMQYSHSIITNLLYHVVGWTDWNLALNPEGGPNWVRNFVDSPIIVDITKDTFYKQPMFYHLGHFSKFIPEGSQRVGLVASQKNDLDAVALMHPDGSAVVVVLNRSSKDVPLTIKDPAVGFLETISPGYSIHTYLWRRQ
# [4] = Powder characteristics (density, flowability); format: physicochemical
# From the text: Meanwhile, isofagomine tartrate according to the present invention has good powder characteristics, e.g., crystal size, density, and flowability, that are suitable for a pharmaceutical manufacturing process. Tables 2 and 3 summarize powder characteristics of an isofagomine tartrate sample prepared according to the present invention. […] Most batches provided more than 98%, or at minimum 90%, of isofagomine tartrate with a particle size of about 1200 μm or less.
# GCase = biological target: T2, GCase (Homo sapiens, UniProt P04062); test: Phase I multiple-dose study, GCase activity in isolated white blood cells; format: in vivo
# T2 construct: endogenous in cells; host or cells: isolated white blood cells of healthy volunteers dosed orally
# T2 sequence (P04062 40-536): T1 sequence (P04062 40-536)
# Protocol: as §1
# In the multiple-dose study, GCase activity in isolated white blood cells was measured at days 1, 3, 5 and 7 during administration of isofagomine tartrate, and at days 9, 14 and 21 during the post-treatment washout period. […] The increase in enzyme level was dose-related, reaching approximately 3.5-fold above baseline levels.
# [5] = Phase I clinical studies in healthy volunteers, safety; format: in vivo, human
# Protocol: as §1
# [6] = Phase I single ascending dose study, pharmacokinetics; format: in vivo, human
# Protocol: as §1, §2
# [7] = Moisture uptake studies (saturated salt solutions); format: physicochemical; conditions: for Weight gain (%): single samples; for Average weight gain (%): average of 3 samples
# From the text: The moisture uptake test results of six different isofagomine tartrate samples prepared according to present invention are summarized in Tables 4 and 5.
compound,measurement,setting,value
"OC[C@H]1CNC[C@@H](O)[C@@H]1O [isofagomine, (3R,4R,5R)-5-(hydroxymethyl)-3,4-piperidinediol]",accumulation,[1],no unexpected accumulation
same,blood-brain barrier crossing,[2],cross the blood-brain barrier
same,effect on GCase levels in cells from patients with different genotypes,"mutant GCase; N370S/N370S, N370S/L444P, N370S/84insG, N370S/R163X, N370S/Y212H, L444P/del 136T, L444P/F216Y, L444P/L174F, G202R/R463C, K79N/complex B exon 9/10",significantly increased GCase levels
same,concentration at maximum enhancement of GCase,mutant GCase; macrophages,about 30 μM
same,inhibition of GCase,[3],potent inhibitor
"OC[C@H]1CNC[C@@H](O)[C@@H]1O [isofagomine tartrate, Isofagomine tartrate]",pharmacokinetic behavior versus dose,[1],linear with dose
same,Bulk Density,[4],0.44 g/mL
same,Carr Index,[4],15%
same,Tap Density,[4],0.52 g/mL
same,Bulk Density,[4]; listed as Isofagomine tartrate,around 0.44 g/ml
same,Carr Index,[4]; listed as Isofagomine tartrate,15%
same,increase in GCase level above baseline,"GCase; isolated white blood cells, healthy volunteers, 25-225 mg daily for seven days, dose-related, maximum reached",approximately 3.5 fold
same,GCase levels after removal of the drug,GCase; post-treatment washout period,return to near baseline levels by day 21
same,serious adverse events,[5]; both studies,No serious adverse events occurred
same,treatment-emergent adverse events,[5]; both studies,mostly mild
same,tolerability,"[5]; healthy volunteers, oral aqueous solution, single 8-300 mg and 25-225 mg daily for seven days",generally well tolerated at all doses
same,increase in GCase levels (average),"mutant GCase; macrophages from Gaucher patients, 32 of 34 responding, treated 5 days, dose-dependent",2.8 fold
same,Tmax,"[6]; both sexes, human, plasma, single-dose study, oral, SEM 0.6 hr, read-out: time at which mean plasma levels peaked (Tmax)",3.4 h
same,half-life,"[6]; both sexes, human, plasma, single-dose study, oral, SEM 2 hr, read-out: plasma elimination half-life (converted)",14 h
same,systemic exposure via the oral route,[6]; healthy volunteers,good systemic exposure
same,plasma AUC and Cmax versus dose,"[6]; single-dose study, 8-300 mg",linearly correlated with administered dose
same,hygroscopicity,[7],not hygroscopic
same,Weight gain (%),"[7]; NaBr saturated solution, 24 hours, RH 59%, 20.5 °C",0.06% and 0.00% and 0.05%
same,Average weight gain (%),"[7]; NaBr saturated solution, 24 hours, RH 59%",0.04%
same,Weight gain (%),"[7]; NaBr saturated solution, 48 hours, RH 59%, 20.8 °C",0.04% and 0.02% and 0.10%
same,Average weight gain (%),"[7]; NaBr saturated solution, 48 hours, RH 59%",0.05%
same,Weight gain (%),"[7]; NaBr saturated solution, 8 days, RH 59%, 20.2 °C",0.06% and 0.07% and 0.10%
same,Average weight gain (%),"[7]; NaBr saturated solution, 8 days, RH 59%",0.08%
same,Weight gain (%),"[7]; NaCl saturated solution, 24 hours, RH 72%, 20.5 °C",0.02% and 0.00% and 0.08%
same,Average weight gain (%),"[7]; NaCl saturated solution, 24 hours, RH 72%",0.04%
same,Weight gain (%),"[7]; NaCl saturated solution, 48 hours, RH 71%, 20.8 °C",0.05% and 0.00% and 0.8%
same,Average weight gain (%),"[7]; NaCl saturated solution, 48 hours, RH 71%",0.05%
same,Weight gain (%),"[7]; NaCl saturated solution, 8 days, RH 72%, 20.2 °C",0.10% and 0.00% and 0.15%
same,Average weight gain (%),"[7]; NaCl saturated solution, 8 days, RH 72%",0.08%
same,moisture uptake,[7]; after exposure to 75% RH for 8 days,about 0.08%
